The results in this text go back to patent US11597762B2, “Treatment of a disease of the gastrointestinal tract with an IL-12/IL-23 inhibitor released using an ingestible device” (BIORA THERAPEUTICS, INC., priority 2016, dated 2023).

This series in a line: Tacrolimus tissue pharmacokinetics, oral vs intra-cecal ingestible device, in Yorkshire-Cross farm swine. It counts as in vivo. To be noted: intra-cecal compared to oral, 12 hours post-dose, FIG. 76. How it is done:
No further randomization procedure was employed.
Animals in Group 1 received an ingestible device containing 0.8 mL of vehicle solution (80% alcohol, 20% HCO-60). Animals in Group 2 received orally […] liquid formulation of tacrolimus at 4 mg/0.8 mL per animal (Prograf: 5 mg/mL). Animals in Group 3 received intra-cecally an ingestible device containing tacrolimus at 1 mg in 0.8 mL per ingestible device. Animals in Group 4 received intra-cecally an ingestible device containing tacrolimus at 2 mg in 0.8 mL per ingestible device. Animals in Group 5 received intra-cecally an ingestible device containing tacrolimus at 4 mg in 0.8 mL per ingestible device. […]
Approximately 200˜400 mg of rectal content were collected, if available, with a fecal swab (Copan Diagnostics Nylon Flocked Dry Swabs, 502CS01). The fecal swab was pre-weighed and weighed after collection in the collection tube (Sterile Tube and Cap No Media, PFPM913S), and the sample weight was recorded. […]
For tissue necropsy, small intestine fluid and cecal fluid were collected separately from all the animals into two separate square plastic bottles, and stored at −20° C. The length and diameter of the cecum and the colon was measured from one animal in each group and recorded for reference. […] All samples were weighed, and the tissue sample weights were recorded. […]

On to `C=CC[C@@H]1/C=C(\C)C[C@H](C)C[C@H](OC)[C@H]2O[C@@](O)(C(=O)C(=O)N3CCCC[C@H]3C(=O)O[C@H](/C(C)=C/[C@@H]3CC[C@@H](O)[C@H](OC)C3)[C@H](C)[C@@H](O)CC1=O)[C@H](C)C[C@@H]2OC` [tacrolimus], for which the “mean concentration of tacrolimus in the cecum tissue” value is given as “higher” and the “mean concentration of tacrolimus in the proximate colon tissue” value is listed as “higher”.
